According to US20250313563A1, “GLYCOGEN SYNTHASE KINASE 3 INHIBITORS AND USES THEREOF” (The Broad Institute, Inc., priority 2022, published 2025):
Like-named read-outs stand apart in the source and are kept apart here.

What was measured:
[1] = biological target: GSK3α (GST-full length GSK3α) (Homo sapiens (Human), UniProt P49840); experiment: GSK3α TR-FRET kinase assay; type: biochemical
Outline: (§1)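 IC50s came from the normalized 665/615 TR-FRET ratio after Tb-anti-pSer641 antibody and streptavidin-d2 detection of phosphorylated biotin-glycogen synthase peptide (200 nM). ATP was 4 μM for GSK3α, 2 μM for GSK3b, or 1 mM; 1 nM enzyme, 100 min, ambient, pH 7.5, after 30-min compound preincubation.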

[2] = biological target: GSK3b (GST-full length GSK3b) (Homo sapiens (Human), UniProt P49841); experiment: GSK3b TR-FRET kinase assay; type: biochemical
Outline: as §1

[3] = 1 nM GSK3α, 4 μM ATP, 30 minute preincubation, Table 16, read-out: GSK3-A TR-FRET BIOCHEMICAL (TR-FRET), IC50
[4] = 1 nM GSK3b, 2 μM ATP, 30 minute preincubation, Table 16, read-out: GSK3-B TR-FRET BIOCHEMICAL (TR-FRET), IC50
[5] = 1 nM GSK3α, 4 μM ATP, 30 minute preincubation, read-out: GSK3-A TR-FRET BIOCHEMICAL (TR-FRET), IC50
[6] = 1 nM GSK3b, 2 μM ATP, 30 minute preincubation, read-out: GSK3-B TR-FRET BIOCHEMICAL (TR-FRET), IC50
[7] = read-out: GSK3-A (TR-FRET 1 mM ATP), GMean, IC50, 1 mM ATP, geometric mean
[8] = read-out: GSK3-B (TR-FRET 1 mM ATP), GMean, IC50, 1 mM ATP, geometric mean
[9] = 1 nM GSK3α, 4 μM ATP, 30 minute preincubation, Table 16, read-out: GSK3-A TR-FRET BIOCHEMICAL (TR-FRET)
[10] = 1 nM GSK3b, 2 μM ATP, 30 minute preincubation, Table 16, read-out: GSK3-B TR-FRET BIOCHEMICAL (TR-FRET)

Sequence of GSK3α (GST-full length GSK3α) (P49840 whole entry): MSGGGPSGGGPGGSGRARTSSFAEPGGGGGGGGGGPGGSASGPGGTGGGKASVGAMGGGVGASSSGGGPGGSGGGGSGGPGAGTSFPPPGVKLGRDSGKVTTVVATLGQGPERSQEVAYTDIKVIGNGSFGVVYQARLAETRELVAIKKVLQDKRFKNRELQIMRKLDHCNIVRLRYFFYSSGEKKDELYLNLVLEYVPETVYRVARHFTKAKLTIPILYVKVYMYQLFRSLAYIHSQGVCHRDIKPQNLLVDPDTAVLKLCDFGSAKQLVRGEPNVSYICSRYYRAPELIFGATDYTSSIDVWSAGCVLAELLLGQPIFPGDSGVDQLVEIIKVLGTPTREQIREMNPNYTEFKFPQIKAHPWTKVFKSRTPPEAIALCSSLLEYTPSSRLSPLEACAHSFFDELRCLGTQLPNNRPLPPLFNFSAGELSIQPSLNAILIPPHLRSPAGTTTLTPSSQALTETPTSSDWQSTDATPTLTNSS
Sequence of GSK3b (GST-full length GSK3b) (P49841 whole entry): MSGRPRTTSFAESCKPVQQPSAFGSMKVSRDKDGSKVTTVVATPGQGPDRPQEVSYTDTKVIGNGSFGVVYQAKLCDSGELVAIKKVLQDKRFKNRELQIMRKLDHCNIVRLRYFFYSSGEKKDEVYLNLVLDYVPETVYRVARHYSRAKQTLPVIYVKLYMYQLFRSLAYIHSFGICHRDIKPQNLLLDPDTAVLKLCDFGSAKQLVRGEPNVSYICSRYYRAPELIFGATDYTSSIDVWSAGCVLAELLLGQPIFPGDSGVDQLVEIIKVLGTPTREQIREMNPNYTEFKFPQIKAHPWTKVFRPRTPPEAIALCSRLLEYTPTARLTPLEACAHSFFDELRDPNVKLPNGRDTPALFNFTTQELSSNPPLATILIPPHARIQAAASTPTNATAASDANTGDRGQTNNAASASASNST

| IC50 [1, 3] | IC50 [2, 4] | Structure (SMILES) | also measured |
| --- | --- | --- | --- |
| > 5000 nM | > 5000 nM | CC[C@]1(c2cc(-c3cnn(C)c3)ccc2F)C2=C(CC(C)(C)CC2=O)Nc2n[nH]cc21 [Compound 909223] |  |
| > 5000 nM | > 5000 nM | CC1OCCC12C1=C(CC(C)(C)CC1=O)Nc1n[nH]cc12 (stereo not drawn) [Compound 911958] |  |
| 1000 to 5000 nM | > 5000 nM | CC[C@H]1CCN1c1cccc([C@@]2(CC)C3=C(CC(C)(C)CC3=O)Nc3n[nH]cc32)c1 [Compound 911972] |  |
| ≤ 100 nM | ≤ 100 nM | CCC1(c2cccc(N(C)c3cccnn3)c2)C2=C(CC(C)(C)CC2=O)Nc2n[nH]cc21 (stereo not drawn) [Compound 911975] | IC50 [1, 7]: 100 to 1000 nM; IC50 [2, 8]: 1000 to 5000 nM |
| 1000 to 5000 nM | > 5000 nM | CCC1(c2cccc(-c3ccnc(OC)c3)c2)C2=C(CC(C)(C)CC2=O)Nc2n[nH]cc21 (stereo not drawn) [Compound 911989] |  |
| ≤ 100 nM | ≤ 100 nM | CC[C@@]1(c2cccc(-c3c(C)nn(C)c3C)c2)C2=C(CC(C)(C)CC2=O)Nc2n[nH]cc21 [Compound 911990] | IC50 [1, 7]: ≤ 100 nM; IC50 [2, 8]: 100 to 1000 nM |
| 1000 to 5000 nM | > 5000 nM | CCC1(c2cccc(N3CCc4ccncc43)c2)C2=C(CC(C)(C)CC2=O)Nc2n[nH]cc21 (stereo not drawn) [Compound 912004] |  |
| ≤ 100 nM | ≤ 100 nM | CCC1(c2cccc(N(CCc3ccccc3)C(C)=O)c2)C2=C(CC(C)(C)CC2=O)Nc2n[nH]cc21 (stereo not drawn) [Compound 912064] |  |
| ≤ 100 nM | ≤ 100 nM | CCC1(c2cccc(N(C(C)=O)C3CCCC3)c2)C2=C(CC(C)(C)CC2=O)Nc2n[nH]cc21 (stereo not drawn) [Compound 912069] |  |
| 1000 to 5000 nM | > 5000 nM | CC1(C)CC(=O)C2=C(C1)Nc1n[nH]cc1C21CNC1 [Compound 912075] |  |
| > 5000 nM | > 5000 nM | CC1(C)CC(=O)C2=C(C1)Nc1n[nH]cc1C21CN(c2ccncc2)C1 [Compound 912077] |  |
| 100 to 1000 nM | 100 to 1000 nM | C[C@H]1CC(=O)C2=C(C1)Nc1n[nH]cc1C21CCOCC1 [Compound 912078] |  |

Second part, the molecule before the results:

| Structure (SMILES) | IC50 [1, 3] | IC50 [2, 4] | also measured |
| --- | --- | --- | --- |
| CC1(C)CC(=O)C2=C(C1)Nc1n[nH]cc1C21COC2(CN(C(=O)OC(C)(C)C)C2)C1 (stereo not drawn) [Compound 911083] |  |  | IC50 [1, 5]: 100 to 1000 nM; IC50 [2, 6]: 1000 to 5000 nM |
| CCC1(c2cccc(C(F)(F)F)c2)C2=C(CC(C)NC2=O)Nc2n[nH]cc21 (stereo not drawn) [Compound 911956] |  |  | IC50 [1, 5]: ≤ 100 nM; IC50 [2, 6]: 100 to 1000 nM |
| CC1(C)CC(=O)C2=C(C1)Nc1n[nH]cc1C21COC2(CCC2)C1 (stereo not drawn) [Compound 911973] |  |  | IC50 [1, 5]: 100 to 1000 nM; IC50 [2, 6]: 100 to 1000 nM |
| CCC1(c2cccc(N(C)c3cccnn3)c2)C2=C(CC(C)(C)CC2=O)Nc2n[nH]cc21 (stereo not drawn) [Compound 911976] | 100 to 1000 nM | > 5000 nM |  |
| CCC1(c2cccc(-c3c(C)nn(C)c3C)c2)C2=C(CC(C)(C)CC2=O)Nc2n[nH]cc21 (stereo not drawn) [Compound 911991] | 100 to 1000 nM | > 5000 nM |  |
| CCC1(c2cccc(-c3ccnn3C)c2)C2=C(CC(C)(C)CC2=O)Nc2n[nH]cc21 (stereo not drawn) [Compound 911992] | ≤ 100 nM | ≤ 100 nM | IC50 [1, 7]: ≤ 100 nM; IC50 [2, 8]: 100 to 1000 nM |
| CC[C@]1(c2cccc(C(F)(F)F)c2)C2=C(CCN(Cc3ccccc3)C2=O)Nc2n[nH]cc21 [Compound 912006] |  |  | IC50 [1, 5]: > 5000 nM; IC50 [2, 6]: > 5000 nM |
| CCC1(c2cccc(N(C)C(=O)CCc3ccccc3)c2)C2=C(CC(C)(C)CC2=O)Nc2n[nH]cc21 (stereo not drawn) [Compound 912066] | ≤ 100 nM | 100 to 1000 nM |  |
| CCC1(c2cccc(N(C)C(=O)c3cnn(C)c3)c2)C2=C(CC(C)(C)CC2=O)Nc2n[nH]cc21 (stereo not drawn) [Compound 912068] | ≤ 100 nM | 100 to 1000 nM |  |
| CCC1(c2cccc(N(C)C(=O)Cc3ccccc3)c2)C2=C(CC(C)(C)CC2=O)Nc2n[nH]cc21 (stereo not drawn) [Compound 912071] | ≤ 100 nM | ≤ 100 nM |  |
| Cc1[nH]nc2c1C1(CCOCC1)C1=C(CC(C)(C)C(F)C1=O)N2 (stereo not drawn) [Compound 912072] |  |  | IC50 [1, 9]: 100 to 1000 nM; IC50 [2, 10]: 100 to 1000 nM |
| CC1(C)CC(=O)C2=C(C1)Nc1n[nH]cc1C21CN(CC(F)F)C1 [Compound 912073] |  |  | IC50 [1, 9]: 100 to 1000 nM; IC50 [2, 10]: 100 to 1000 nM |
| CC1(C)CC(=O)C2=C(C1)Nc1n[nH]cc1C21CN(CC(F)(F)F)C1 [Compound 912074] |  |  | IC50 [1, 9]: ≤ 100 nM; IC50 [2, 10]: 100 to 1000 nM |
| CC1(C)CC(=O)C2=C(C1)Nc1n[nH]cc1C21CN(C2COC2)C1 [Compound 912076] |  |  | IC50 [1, 9]: 100 to 1000 nM; IC50 [2, 10]: 1000 to 5000 nM |
| C[C@@H]1CC(=O)C2=C(C1)Nc1n[nH]cc1C21CCOCC1 [Compound 912079] | 100 to 1000 nM | 100 to 1000 nM |  |
